Assay results published in article PMC5017735, “A Novel Peptide Derived from the Fusion Protein Heptad Repeat Inhibits Replication of Subacute Sclerosing Panencephalitis Virus In Vitro and In Vivo” (PLoS ONE, 2016).
Peptide text beside a SMILES is read from it.

Columns and labels:
[1] = test system: Vero cells; test: Methyl tetrazolium cytotoxicity assay, Vero cells; assay type: cell-based, African green monkey; details: confluent Vero cells, 24 h, 37°C
Experimental: (§1) Peptide cytotoxicity was determined using the methyl tetrazolium assay. Five-fold serial dilutions of peptides were added to confluent Vero or Vero/SLAM cells. Cells were then incubated at 37°C for 24 h, and the number of viable cells was determined using 3-(4,5-dimethyllthiazol-2-yl)-2,5-diphenylterazolium bromide (Sigma–Aldrich, Tokyo, Japan). The 50% cytotoxic concentration (CC50), which was defined as the concentration required to reduce the cell viability by 50% relative to that of untreated controls, was determined. The selectivity index (SI) was defined as the ratio of the CC50 relative to the EC50 value.

[2] = test system: MV Edmonston strain; test: Viral plaque reduction assay, measles virus in Vero cells; assay type: cell-based; details: for EC50: plaque reduction, MV Edmonston strain, mean ± SD; for EC50 / SI, measles virus (Vero cells): Vero cells; for SI, measles virus (Vero cells): selectivity index, ratio of CC50 relative to EC50
Experimental: (§2) African green monkey kidney (Vero) cells and Vero cells expressing human SLAM (Vero/SLAM cells) were used in all experiments. The growth medium for Vero cells comprised minimal essential medium (MEM) supplemented with 10% heat-inactivated newborn bovine serum, penicillin G (100 IU/ml), streptomycin (100 μg/ml), and L-glutamine (300 μg/ml). The same growth medium, which was further supplemented with G418 (400 μg/ml), was used for Vero/SLAM cells. Cells were seeded into the wells (22 mm) of 12-well tissue culture plates at 1 × 10^5 cells/well and incubated at 37°C in a 10% CO2 incubator for 3 days, at which time they had just reached confluence. The virus strains used were human MV Edmonston strain and SSPE Yamagata-1 [34], which was originally isolated from the brain of an SSPE patient. The Edmonston strain of MV was used to inoculate Vero/SLAM cells and harvested after freeze–thawing infected cells. The SSPE Yamagata-1 strain was cultured in Vero/SLAM cells, harvested by trypsinization, prepared as an infected cell suspension in the Vero/SLAM cell medium supplemented with 10% dimethyl sulfoxide, and stored at −80°C until use.
(§3) Screening was performed to evaluate the antiviral effects of each synthetic peptide against the MV and SSPE viruses using the viral plaque reduction assay. Based on the results of the peptide screening, the 50% effective concentration (EC50), i.e., the concentration of compounds required to inhibit virus plaque formation by 50%, was also determined. The Human MV Edmonston strain was used to produce cell-free virions, which yielded a reproducible number of syncytia [generally 200–300 plaque-forming units (PFUs)] in the control wells. The SSPE virus was also used to yield a reproducible number of syncytia (generally 70–150 PFU) in control wells. In the peptide screening assay, each synthetic peptide was used at a concentration of 10 μM. IFN-α and enfuvirtide, a peptide fusion inhibitor of HIV-1, were used as controls at a concentration of 250 IU/ml and 10 μM, respectively.

[3] = test system: SSPE Yamagata-1 strain; test: Viral plaque reduction assay, SSPE virus in Vero/SLAM cells; assay type: cell-based, SSPE virus (variant measles virus); details: for EC50: plaque reduction, SSPE Yamagata-1 strain, mean ± SD; for SI, SSPE virus (Vero/SLAM cells): selectivity index, ratio of CC50 relative to EC50
Experimental: as §2, §3

[4] = test system: Vero/SLAM cells; test: Methyl tetrazolium cytotoxicity assay, Vero/SLAM cells; assay type: cell-based, African green monkey; details: confluent Vero/SLAM cells, 24 h, 37°C
Experimental: as §1

[5] = test system: SSPE Yamagata-1 strain; test: Viral plaque reduction assay, SSPE virus in Vero cells; assay type: cell-based, SSPE virus (variant measles virus); details: for EC50: plaque reduction, SSPE Yamagata-1 strain, mean ± SD; for EC50 / SI, SSPE virus (Vero cells): Vero cells; for SI, SSPE virus (Vero cells): selectivity index, ratio of CC50 relative to EC50; for inhibition of plaque formation compared with the control group, SSPE Yamagata-1 strain (peptide screening): peptide 10 μM, Vero cells and Vero/SLAM cells (Fig 2C), duplicate, at least twice independently
Experimental: as §2, §3

[6] = In vivo toxicity, mice administered peptides alone; parameters: species or system BALB/cAJcl-nu/nu mice; details: peptide 100 μM intracranial, no virus infection
Experimental: Based on a previous report, but with slight modifications, 3-week-old female BALB/cAJcl-nu/nu mice (CLEA Japan Inc., Tokyo, Japan) were used in the animal experiments. Mice were divided in four groups (n = 6 for each cage) and housed with free access to both water and food and monitored daily. The mice were SSPE virus-infected or mock-infected (MEM alone) intracranially. An SSPE virus-infected cell suspension containing 250 PFU/ 30 μl (100% lethal dose) was inoculated into the subarachnoid space of nude mice using a 27-gauge double needle at a depth of 2 mm. Each compound was prepared at a concentration of 100 μM and was injected intracranially at 0 (mixed with viruses), 6, and 24 h after the initial virus inoculation. All injections were performed under inhalational anesthesia with isoflurane. Each mouse was checked for neurological symptoms and weighed daily. The ethical endpoint was defined as <75% of their maximum weight because most mice would die within 24 h. On attaining this endpoint, the mice were sacrificed by cervical dislocation under inhalational anesthesia with isoflurane. In this experiment, five mice died of natural causes before the ethical endpoint; however, all mice had neurological symptoms and 9.5%, 13.2%,14.5%, 15.8%, 16.4% weight loss (one each) relative to their maximum weight. This study was approved by the control of the Animal Research Committee in accordance with the Guidelines on Animal Experiments in Fukushima Medical University and the Rules for the Protection and Care of Animals (approval number: 23038).

[7] = test system: SSPE virus; test: Time-of-addition experiments, SSPE virus in Vero cells; assay type: cell-based, SSPE virus (variant measles virus)
Experimental: Synthetic peptides, M1 and M2EK (10 μM each) were used in time-of-addition experiments. Each peptide was added to Vero cells at three distinct time points: prior to infection (pretreatment with the compound), at the same time as the virus infection (simultaneous infection), or post-infection (post-entry). The SSPE virus was prepared to yield a reproducible number of syncytia in untreated control wells (approximately 50–100/well). In the pretreatment assay, peptide was added to confluent cells and incubated at 37°C for 30 min, and the cell cultures were washed with MEM before viral inoculation. Cells were then challenged with the SSPE virus at 0°C for 30 min. In the simultaneous infection assay, SSPE virus with peptide was inoculated at 0°C for 30 min. After the adsorption, the cell cultures were subsequently washed with MEM, and growth medium containing 0.75% methylcellulose was overlaid on the cell cultures, followed by incubation for 3 days in both pretreatment and simultaneous infection assays. In the post-entry assay, cells were challenged with the SSPE virus at 0°C for 30 min. After adsorption, the cell cultures were subsequently washed with MEM and peptide, which was prepared in growth medium containing 0.75% methylcellulose, was subsequently overlaid on the cell cultures at distinct time points. The starting point when cells were incubated at 0°C for 30 min was defined as t0.

Compound | CC50, SSPE virus (Vero cells) [1] | CC50, measles virus (Vero cells) [1] | EC50 [2] | SI, measles virus (Vero cells) [2] | EC50 [3] | SI, SSPE virus (Vero/SLAM cells) [3] | CC50, SSPE virus (Vero/SLAM cells) [4] | EC50 [5] | SI, SSPE virus (Vero cells) [5] | inhibition of plaque formation compared with the control group, SSPE Yamagata-1 strain (peptide screening) [5] | survival of mice administered with peptides alone, with no symptoms [6] | viral inhibitory effect, peptide added post-infection (post-entry) ([7]; peptide 10 μM overlaid at distinct time points after adsorption) | viral plaque numbers, peptide added before viral adsorption or at the same time as virus inoculation ([7]; peptide 10 μM, pretreatment 37°C 30 min or simultaneous with SSPE virus 0°C 30 min, compared with control) | inhibition of MV Edmonston plaque formation compared with the control group (peptide screening) ([2]; peptide 10 μM (Fig 2C), duplicate, at least twice independently)
CC[C@H](C)[C@H](NC(=O)[C@H](C)NC(=O)[C@H](CC(N)=O)NC(=O)CNC(=O)[C@H](CC(C)C)NC(=O)[C@H](CC(N)=O)NC(=O)[C@@H](NC(=O)CNC(=O)[C@@H](NC(C)=O)C(C)C)[C@@H](C)O)C(=O)N[C@@H](C)C(=O)N[C@@H](CCCCN)C(=O)N[C@@H](CC(C)C)C(=O)N[C@@H](CCC(=O)O)C(=O)N[C@@H](CC(=O)O)C(=O)N[C@@H](C)C(=O)N[C@@H](CCCCN)C(=O)N[C@@H](CCC(=O)O)C(=O)N[C@@H](CC(C)C)C(=O)N[C@@H](CC(C)C)C(=O)N[C@@H](CCC(=O)O)C(=O)N[C@@H](CO)C(=O)N[C@@H](CO)C(=O)N[C@@H](CC(=O)O)C(=O)N[C@@H](CCC(N)=O)C(=O)N[C@H](C(=O)N[C@@H](CC(C)C)C(=O)N[C@@H](CCCNC(=N)N)C(=O)N[C@@H](CO)C(=O)N[C@@H](CCSC)C(=O)N[C@@H](CCCCN)C(=O)NCC(=O)N[C@@H](CC(C)C)C(=O)N[C@@H](CO)C(=O)N[C@@H](CO)C(=O)N[C@H](C(N)=O)[C@@H](C)O)[C@@H](C)CC [Peptide M2] | >100000 nM | >100000 nM | 120 ± 40 nM | >805 | 480 ± 220 nM | >209 | >100000 nM | 260 ± 170 nM | >377 | – | – | – | – | –
CC[C@H](C)[C@H](NC(C)=O)C(=O)N[C@@H](CCC(=O)O)C(=O)N[C@@H](CCC(=O)O)C(=O)N[C@@H](CCC(=O)O)C(=O)N[C@@H](CCCNC(=N)N)C(=O)N[C@@H](CCCCN)C(=O)N[C@@H](CCCCN)C(=O)N[C@H](C(=O)N[C@@H](CCC(=O)O)C(=O)N[C@@H](CCC(=O)O)C(=O)N[C@@H](CC(N)=O)C(=O)N[C@@H](CC(C)C)C(=O)N[C@@H](CCCCN)C(=O)N[C@@H](CCCCN)C(=O)N[C@@H](C)C(=O)N[C@@H](CCC(=O)O)C(=O)N[C@@H](CCC(=O)O)C(=O)N[C@@H](CCCCN)C(=O)N[C@@H](CC(C)C)C(=O)N[C@@H](CCCCN)C(=O)N[C@@H](CCCCN)C(=O)N[C@@H](C)C(=O)N[C@@H](CCC(=O)O)C(=O)N[C@@H](CCC(=O)O)C(=O)N[C@@H](CC(C)C)C(=O)N[C@@H](CC(C)C)C(=O)N[C@@H](CCCCN)C(=O)N[C@@H](CCCCN)C(=O)N[C@@H](CO)C(=O)N[C@@H](CCC(=O)O)C(=O)N[C@@H](CCC(=O)O)C(=O)N[C@H](C(=O)N[C@@H](CC(C)C)C(=O)N[C@@H](CCCCN)C(=O)N[C@@H](CCCCN)C(N)=O)[C@@H](C)CC)C(C)C [Peptide M1EK] (Ac-IEEERKKVEENLKKAEEKLKKAEELLKKSEEILKK-NH2) | – | – | – | – | 170 ± 20 nM | – | – | 120 ± 50 nM | – | > 97% | – | – | – | –
enfuvirtide | >100000 nM | >100000 nM | – | – | – | – | >100000 nM | – | – | – | > 45 days | – | – | –
CC[C@H](C)[C@H](NC(C)=O)C(=O)N[C@@H](CO)C(=O)N[C@@H](CC(C)C)C(=O)N[C@@H](CCC(=O)O)C(=O)N[C@@H](CCCNC(=N)N)C(=O)N[C@@H](CC(C)C)C(=O)N[C@@H](CC(=O)O)C(=O)N[C@H](C(=O)NCC(=O)N[C@H](C(=O)N[C@@H](CC(N)=O)C(=O)N[C@@H](CC(C)C)C(=O)NCC(=O)N[C@@H](CC(N)=O)C(=O)N[C@@H](C)C(=O)N[C@H](C(=O)N[C@@H](C)C(=O)N[C@@H](CCCCN)C(=O)N[C@@H](CC(C)C)C(=O)N[C@@H](CCC(=O)O)C(=O)N[C@@H](CC(=O)O)C(=O)N[C@@H](C)C(=O)N[C@@H](CCCCN)C(=O)N[C@@H](CCC(=O)O)C(=O)N[C@@H](CC(C)C)C(=O)N[C@@H](CC(C)C)C(=O)N[C@@H](CCC(=O)O)C(=O)N[C@@H](CO)C(=O)N[C@@H](CO)C(=O)N[C@@H](CC(=O)O)C(=O)N[C@@H](CCC(N)=O)C(=O)N[C@H](C(=O)N[C@@H](CC(C)C)C(=O)N[C@@H](CCCNC(=N)N)C(=O)N[C@@H](CO)C(N)=O)[C@@H](C)CC)[C@@H](C)CC)[C@@H](C)O)C(C)C [Peptide M1] | – | – | 30 ± 10 nM | >3663 | 10 ± 10 nM | >9524 | – | 10 ± 10 nM | >7519 | > 97% | > 45 days | observed in a time-dependent manner, particularly within 24 h | no reduction in viral plaque numbers | –
Enfuvirtide | – | – | > 10000 nM | – | > 10000 nM | – | – | > 10000 nM | – | lower antiviral activity | – | – | – | lower antiviral activity
